Molecules are shown by their SMILES. “Also recorded” adds a separate entry of the source.

Common to all, as to type: cell-based, human
The test system of one test is Mgat3 transcription. In words: qPCR of Mgat3 transcription in PBMC's from AD patients cultured with Aβ and test agent. Here is the method:
(§1) RNA Isolation and qPCR. RNA was isolated as above from PBMC's (10 million) of each subject, which were cultured overnight with or without Aβ (2 μg/ml); and cDNA was synthesized using the iSCRIPT cDNA Synthesis Kit. The expression levels of the genes of interest were tested by qPCR on a real-time PCR detector and normalized to the levels of the housekeeping gene 36B4 with the following primers: […]
(§2) SYBR Green reactions were carried out with the IQ SYBR Green mix. Reactions were run on a Continuous Fluorescence detector and analyzed. The relative quantities of the gene tested per sample were calculated against 36B4 using the ΔΔC(T) formula as previously described. The results are expressed as log [MGAT (or TLR) RNA (with Aβ)/MGAT (or TLR) RNA (without Aβ)] for each specimen. For evaluation of curcumins or curcumin analogs the above assay was used. Curcumins (0.1 uM) were added to PBMC's from AD patients cultured overnight with ±Aβ as above. After 2 hours of incubation with the curcumin or analog, RNA was isolated and cDNA was synthesized as above. The expression levels of Mgat3 or TLR transcription was quantified and normalized to the levels of housekeeping genes and compared to cells treated with curcumin or analogs with or without Aβ vs. untreated cells. The amount of Mgat3 (or TLR) RNA with Aβ and test agent/Mgat3 (or TLR) RNA withal alone)] for each cell preparation in the presence of test agent was determined. The ratio was used to determine the potency of the agent tested. Potent compounds had elevated ratios (>1.5) and were used to rank the relative activity of each test agent (Table 2).
Curcumins. […] Crude natural product derived materials (i.e., curcuminoids) enhance phagocytosis of Aβ by macrophages from AD patients in approximately 50% of the cases examined. […] The material was purified to near homogeneity and identified by LCMS as bisdesmethoxycurcumin on the basis of its molecular ion and fragmentation pattern. To verify the biological activity of this minor constituent, bisdesmethoxycurcumin was chemically synthesized and tested in the phagocytosis and transcription assays described above (see Example 4). Compared with curcumin, both the bisdesmethoxycurcumin material isolated by chromatography and the chemically synthesized bisdesmethoxycurcumin material optimally stimulated phagocytosis at 0.1 μM. To determine whether functional improvement would be accompanied by biochemical changes, we tested transcriptional up-regulation of MGA T3 and TLR's in PBMC's from AD patients and controls in the presence of Aβ with bisdesmethoxycurcumin (0.1 μM) in comparison to Aβ alone. […] Thus, curcumins (0.1 uM) were added to PBMC's from AD patients cultured overnight with Aβ as above. After 2 hours of incubation, RNA was isolated and cDNA was synthesized. The expression levels of Mgat3 or TLR transcription was quantified and normalized to the levels of housekeeping genes and compared to cells treated with curcumin or analogs without Aβ. The amount of Mgat3 (or TLR) RNA with test agent and Aβ)/Mgat3 (or TLR) RNA (with Aβ alone)] for each cell preparation in the presence of test agent was determined. The ratio was used to determine the potency of the agent tested. Potent compounds had elevated ratios (>1.5) and were used to rank the relative activity (Table 2).
Mgat3 and TLR transcription in cells from AD and control patients. We tested by qPCR Mgat3 and/0or TLR transcription in cells from AD patients and compared the results to those obtained from age-matched controls (Table 2). As discussed above, activation or up-regulation of macrophage Mgat3 or TLR's results in many functional outcomes, including the enhancement of […] and removal of Aβ, increased apoptosis, secretion of inflammatory cytokines, and other anti-AD antimicrobial activities. […] Thus, the ratio of Mgat3 or TLR transcription upon Aβ stimulation of AD versus control PBMCs provides an indicator and sensitive method to test the in vitro efficacy of drug candidates. […]
(Quantitative PCR measures a nucleic acid by following its amplification.)

Test [1] deals with Toll-like receptor (TLR) RNA's (TLR1-10). In words: qPCR of TLR transcription in PBMC's from AD patients cultured with Aβ and test agent. The conditions noted are these: for up-regulation of TLR1-10 RNA: PBMCs from one AD patient (patient D, FIG. 1), Aβ plus agent overnight. Here is the method: 10 million PBMC's each of four AD patients (A, B, C, D) were treated overnight with no addition, Aβ (A, B, C, D; black bars) or with Aβ and bisdemethoxycurcumin (D, striped bar). Control subjects's (M, N, O) PBMC's were treated with no addition or Aβ (open bars). RNA was extracted and tested by qPCR, and the TLR ratio was determined as described in the Methods. The significance of differences between patients and controls (by Mann-Whitney test) are: TLR1 0.05; TLR2 0.05; TLR3 0.05; TLR4 0.08; TLR5 0.05; TLR6 0.077; TLR7 0.08; TLR8 0.05; TLR9 0.08; TLR10 0.05. The graphs show changes in receptors on 2-fold (log 2) scale.
as §1
as §2, with “Curcumins (0.1 uM) were added to PBMC's from AD patients cultured overnight with ±Aβ as above. After 2 hours of incubation with the curcumin or analog, RNA was isolated and cDNA was synthesized as above.” left out, “The ratio was used to determine the potency of the agent tested. Potent compounds had elevated ratios (>1.5) and were used to rank the relative activity of each test agent (Table 2).” left out
Curcumins. […] The expression levels of Mgat3 or TLR transcription was quantified and normalized to the levels of housekeeping genes and compared to cells treated with curcumin or analogs without Aβ. […]

Test [2] deals with macrophages of AD patients. In words: Phagocytosis of FITC-amyloid-beta (1-42) by macrophages of AD patients. The text has this:
Peripheral blood mononuclear cells (PBMC's) and macrophages. AD patients were recruited at the time of enrollment in a double-blind study of curcumin Complex 3 in progress at UCLA. The diagnostic criteria for AD satisfied the National Institute of Neurological and Communicative Disorders and the AD and Related Disorders Association criteria for probable Alzheimer's disease. Normal age-matched control subjects were recruited. PBMC's were isolated by the Ficoll Hypaque gradient technique from venous blood. To prepare macrophage slide cultures, 50,000 PBMC's were cultured in each well of an 8-chamber polystyrene vessel glass slide in Iscove's medium with 10% autologous serum until differentiated into adherent macrophages (7-14 days).
Phagocytosis assay and confocal microscopy. Macrophages were exposed to FITC-amyloid-beta (1-42) (2 μg/ml) overnight, fixed with 4% paraformaldehyde, permeabilized with 0.1% Triton X-100, blocked with 1% BSA in PBS and stained with Rab 5 or EEA1 antibodies by indirect immunofluorescence; lysosomes were stained intravitally by the Lyso-Tracker probe; macrophages were stained using anti-CD68; neurons were stained using anti-NeuN. The preparations were examined using fluorescence and confocal microscopy.
Ability of monocytes to clear Aβ in the brain. Co-culture of freshly isolated monocytes with sections of AD frontal lobe to test the ability of monocytes to clear Aβ in the brain was done. One third of control monocytes became saturated with Aβ in 2 days and 100% in 4 days. […] Apoptosis of macrophages treated with Aβ was done with the SR-VAD-FMK polycaspase assay. Differentiated macrophages were treated with curcuminoids or analogs in the medium overnight and were then exposed to FITC-Aβ (1-42) to 2.5 μg/ml, incubated for 24 or 48 h and examined by fluorescence or confocal microscopy.
Curcuminoids reverse defective phagocytosis of amyloid-beta by macrophages of individual AD patients. […] Macrophages were visualized using anti-CD68 or fluorescent phalloidin with a fluorescence microscope.

The subject of test [3] is TLR2, TLR3 and TLR4 on monocytes. In words: Flow cytometry of TLR expression on monocytes of PBMCs from an AD patient. In general terms: Flow cytometry measures light scatter and fluorescence of single cells or particles in a stream.
Where [4] appears, read: 0.1 μM, PBMC's from AD patients.

For `O=C(C=Cc1ccc(O)cc1)C=C(O)C=Cc1ccc(O)cc1` [Compound 5a, 5-Hydroxy-1,7-bis-(4-hydroxy-phenyl)-hepta-1,4,6-trien-3-one], in the test on Mgat3 transcription (setting [4]), the “transcription of MGAT3 with Aβ and agent in comparison to Aβ alone” value is on record as “up-regulated in all four patients examined”. Further, in the test with Mgat3 transcription (Homo sapiens, curcumins 0.1 uM, PBMC's from AD patients cultured overnight with Aβ, 2 hours incubation, qPCR, read-out: Relative Activity: relative ratio of Mgat3 transcription in AD/Mgat3 transcription in control cells), the fold induction at 0.1 µM was in the range of 1.5 to 2. Moreover, in the test on Mgat3 transcription (repeat assays), the “relative Mgat3 ratios” value is given as 3-5 fold. Besides, in test [1] (setting [4]), the “transcription of TLRs with Aβ and agent in comparison to Aβ alone” value was “up-regulated in all four patients examined”. The “up-regulation of TLR1-10 RNA” value in test [1] (listed as Bisdemethoxycurcumin) is “all 10 TLRs were up-regulated”; in test [1] (listed as bisdemethoxycurcumin) it was “up-regulation”. In addition, in test [2] (in vitro treatment during Aβ phagocytosis, fluorescence/confocal microscopy, listed as bisdemethoxycurcumin), the “effect on Aβ phagocytosis/uptake by AD macrophages” value is “enhanced the phagocytosis of Aβ by macrophages of AD patients; also recorded: considerable activity”. Further, the “concentration that optimally stimulated phagocytosis” value in test [2] (isolated and chemically synthesized material, compared with curcumin) was 0.1 µM. In test [3], the “expression of TLR2, TLR3 and TLR4 on monocytes” value is “increased expression”.

Source of the values: patent publication US20090263492A1, “Diagnostic Methods and Genetic Markers for Alzheimer Disease” (priority 2006, published 2009).
